Data: US9944646B2, “Bicyclic azaheterocyclobenzylamines as PI3K inhibitors” (Incyte Corporation, priority 2012, dated 2018)
Counter-ions that a name gives are not always drawn.

What follows are compounds tested against PI3Kδ (Homo sapiens (Human), UniProt O00329) (assay: PI3K Enzyme Assay (Example A2), [γ-33P]ATP filter plate).
Sequence of PI3Kδ (O00329 whole entry): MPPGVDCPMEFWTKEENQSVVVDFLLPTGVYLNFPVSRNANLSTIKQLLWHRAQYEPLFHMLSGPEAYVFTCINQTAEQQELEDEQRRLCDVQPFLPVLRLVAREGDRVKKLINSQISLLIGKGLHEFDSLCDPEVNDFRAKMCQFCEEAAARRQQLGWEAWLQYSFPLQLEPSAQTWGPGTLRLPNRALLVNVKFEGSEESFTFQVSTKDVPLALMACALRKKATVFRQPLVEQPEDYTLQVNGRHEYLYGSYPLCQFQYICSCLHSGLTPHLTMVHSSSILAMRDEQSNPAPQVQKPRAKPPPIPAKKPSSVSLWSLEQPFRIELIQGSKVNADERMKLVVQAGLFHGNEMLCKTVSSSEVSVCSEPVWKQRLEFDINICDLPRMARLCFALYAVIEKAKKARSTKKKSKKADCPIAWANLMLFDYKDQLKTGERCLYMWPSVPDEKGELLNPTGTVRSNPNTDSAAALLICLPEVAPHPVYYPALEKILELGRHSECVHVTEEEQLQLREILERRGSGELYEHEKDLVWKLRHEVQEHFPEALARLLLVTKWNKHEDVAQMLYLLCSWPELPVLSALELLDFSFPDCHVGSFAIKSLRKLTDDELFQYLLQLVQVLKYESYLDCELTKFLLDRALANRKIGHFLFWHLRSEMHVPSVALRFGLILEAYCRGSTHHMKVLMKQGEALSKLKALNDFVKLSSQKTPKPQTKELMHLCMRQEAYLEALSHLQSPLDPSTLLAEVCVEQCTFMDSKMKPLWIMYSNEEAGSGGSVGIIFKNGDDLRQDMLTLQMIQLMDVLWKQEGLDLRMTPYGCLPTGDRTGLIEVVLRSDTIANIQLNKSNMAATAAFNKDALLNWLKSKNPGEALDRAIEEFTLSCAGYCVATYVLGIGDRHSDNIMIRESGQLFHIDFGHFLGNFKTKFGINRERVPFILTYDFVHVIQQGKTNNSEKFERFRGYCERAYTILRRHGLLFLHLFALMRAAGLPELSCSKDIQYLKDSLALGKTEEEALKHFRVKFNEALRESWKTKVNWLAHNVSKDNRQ
Sequence of PI3Kδ (P27986 whole entry partner): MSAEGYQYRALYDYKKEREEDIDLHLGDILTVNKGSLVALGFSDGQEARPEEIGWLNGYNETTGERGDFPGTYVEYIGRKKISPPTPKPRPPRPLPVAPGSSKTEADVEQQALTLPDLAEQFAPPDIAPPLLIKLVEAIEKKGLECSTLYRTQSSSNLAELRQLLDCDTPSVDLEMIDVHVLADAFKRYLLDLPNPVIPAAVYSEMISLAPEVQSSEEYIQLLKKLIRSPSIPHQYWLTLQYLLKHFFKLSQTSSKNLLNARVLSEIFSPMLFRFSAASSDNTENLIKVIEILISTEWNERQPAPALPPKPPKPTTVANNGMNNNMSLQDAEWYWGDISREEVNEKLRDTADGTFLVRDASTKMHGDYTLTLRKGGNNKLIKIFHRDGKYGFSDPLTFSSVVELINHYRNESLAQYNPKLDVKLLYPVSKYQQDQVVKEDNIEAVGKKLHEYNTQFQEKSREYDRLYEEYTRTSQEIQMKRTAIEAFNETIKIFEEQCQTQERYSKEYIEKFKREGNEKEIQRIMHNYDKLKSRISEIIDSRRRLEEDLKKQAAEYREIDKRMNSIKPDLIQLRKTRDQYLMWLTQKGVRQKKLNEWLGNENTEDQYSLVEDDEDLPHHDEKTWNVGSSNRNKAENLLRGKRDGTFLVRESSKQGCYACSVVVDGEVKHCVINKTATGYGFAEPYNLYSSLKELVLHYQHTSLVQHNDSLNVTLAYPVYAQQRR
Format: biochemical
Procedure: Example A2: PI3K Enzyme Assay
Lipid kinase substrate, phosphoinositol-4,5-bisphosphate (PIP2), are purchased from Echelon Biosciences (Salt Lake City, Utah). PI3K isoforms α, β, δ and γ are purchased from Millipore (Bedford, Mass.). ATP, MgCl2, DTT, EDTA, MOPS and CHAPS are purchased from Sigma-Aldrich (St. Louis, Mo.).
The kinase reaction are conducted in clear-bottom 96-well plate from Thermo Fisher Scientific in a final volume of 24 μL. Inhibitors are first diluted serially in DMSO and added to the plate wells before the addition of other reaction components. The final concentration of DMSO in the assay is 0.5%. The PI3K assays are carried out at room temperature in 20 mM MOPS, pH 6.7, 10 mM MgCl2, 5 mM DTT and CHAPS 0.03%. The reaction mixture is prepared containing 50 µM PIP2, kinase and varying concentration of inhibitors. Reactions are initiated by the addition of ATP containing 2.2 μCi [γ-^33P]ATP to a final concentration of 1000 μM. The final concentration of PI3K isoforms α, β, δ and γ in the assay were 1.3, 9.4, 2.9 and 10.8 nM, respectively. Reactions are incubated for 180 minutes and terminated by the addition of 100 μL of 1 M potassium phosphate pH 8.0, 30 mM EDTA quench buffer. A 100 μL aliquot of the reaction solution are then transferred to 96-well Millipore MultiScreen IP […] PVDF filter plate (The filter plate is prewetted with 200 μL 100% ethanol, distilled water, and 1 M potassium phosphate pH 8.0, respectively). The filter plate is aspirated on a Millipore Manifold under vacuum and washed with 18×200 μL wash buffer containing 1 M potassium phosphate pH 8.0 and 1 mM ATP. After drying by aspiration and blotting, the plate is air dried in an incubator at 37° C. overnight. Packard TopCount adapter (Millipore) is then attached to the plate followed with addition of 120 μL Microscint 20 scintillation cocktail (Perkin Elmer) in each well. After the plate sealing, the radioactivity of the product is determined by scintillation counting on Topcount (Perkin-Elmer). IC50 determination is performed by fitting the curve of percent control activity versus the log of the inhibitor concentration using the GraphPad Prism 3.0 software.
For `Cc1nn(C(C)c2cc(Cl)c(C#N)c3c2OC(C)CN(C2CN(S(=O)(=O)N(C)C)C2)C3)c2ncnc(N)c12` (single isomer, unassigned) [Example 105, 3-[9-[1-(4-amino-3-methyl-1H-pyrazolo[3,4-d]pyrimidin-1-yl)ethyl]-7-chloro-6-cyano-2-methyl-2,3-dihydro-1,4-benzoxazepin-4(5H)-yl]-N,N-dimethylazetidine-1-sulfonamide], the IC50 was ≤ 100 nM. In the case of `Cc1nn(C(C)c2cc(Cl)c(C#N)c3c2OC(C)CN(C2CN(S(=O)(=O)N(C)C)C2)C3)c2ncnc(N)c12` (single isomer, unassigned) [Example 106, 3-[9-[1-(4-amino-3-methyl-1H-pyrazolo[3,4-d]pyrimidin-1-yl)ethyl]-7-chloro-6-cyano-2-methyl-2,3-dihydro-1,4-benzoxazepin-4(5H)-yl]-N,N-dimethylazetidine-1-sulfonamide], the IC50 is reported as ≤ 100 nM. In the case of `Cc1nn(C(C)c2cc(Cl)c(C#N)c3c2OC(C)CN(CC#N)C3)c2ncnc(N)c12` (single isomer, unassigned) [Example 107, 9-[1-(4-amino-3-methyl-1H-pyrazolo[3,4-d]pyrimidin-1-yl)ethyl]-7-chloro-4-(cyanomethyl)-2-methyl-2,3,4,5-tetrahydro-1,4-benzoxazepine-6-carbonitrile], the IC50 is reported as ≤ 100 nM. With `Cc1nn(C(C)c2cc(Cl)c(C#N)c3c2OC(C)CN(CC#N)C3)c2ncnc(N)c12` (single isomer, unassigned) [Example 108, 9-[1-(4-amino-3-methyl-1H-pyrazolo[3,4-d]pyrimidin-1-yl)ethyl]-7-chloro-4-(cyanomethyl)-2-methyl-2,3,4,5-tetrahydro-1,4-benzoxazepine-6-carbonitrile] the IC50 was ≤ 100 nM. `Cc1nn(C(C)c2cc(Cl)c(C#N)c3c2OC(C)CN(CC(N)=O)C3)c2ncnc(N)c12` (single isomer, unassigned) [Example 109, 2-[9-[1-(4-amino-3-methyl-1H-pyrazolo[3,4-d]pyrimidin-1-yl)ethyl]-7-chloro-6-cyano-2-methyl-2,3-dihydro-1,4-benzoxazepin-4(5H)-yl]acetamide] was tested, and the IC50 was ≤ 100 nM. For `Cc1nn(C(C)c2cc(Cl)c(C#N)c3c2OC(C)CN(CC(N)=O)C3)c2ncnc(N)c12` (single isomer, unassigned) [Example 110, 2-[9-[1-(4-amino-3-methyl-1H-pyrazolo[3,4-d]pyrimidin-1-yl)ethyl]-7-chloro-6-cyano-2-methyl-2,3-dihydro-1,4-benzoxazepin-4(5H)-yl]acetamide], the IC50 was ≤ 100 nM. `COCCN1Cc2c(C#N)c(Cl)cc(C(C)n3nc(C)c4c(N)ncnc43)c2OC(C)C1` (single isomer, unassigned) [Example 111, 9-[1-(4-amino-3-methyl-1H-pyrazolo[3,4-d]pyrimidin-1-yl)ethyl]-7-chloro-4-(2-methoxyethyl)-2-methyl-2,3,4,5-tetrahydro-1,4-benzoxazepine-6-carbonitrile] was tested, and the IC50 was ≤ 100 nM. With `COCCN1Cc2c(C#N)c(Cl)cc(C(C)n3nc(C)c4c(N)ncnc43)c2OC(C)C1` (single isomer, unassigned) [Example 112, 9-[1-(4-amino-3-methyl-1H-pyrazolo[3,4-d]pyrimidin-1-yl)ethyl]-7-chloro-4-(2-methoxyethyl)-2-methyl-2,3,4,5-tetrahydro-1,4-benzoxazepine-6-carbonitrile] the IC50 was ≤ 100 nM. In the case of `CNC(=O)C1CC(N2Cc3c(C#N)c(Cl)cc(C(C)n4nc(C)c5c(N)ncnc54)c3OC(C)C2)C1` (single isomer, unassigned) [Example 113, 3-[9-[1-(4-amino-3-methyl-1H-pyrazolo[3,4-d]pyrimidin-1-yl)ethyl]-7-chloro-6-cyano-2-methyl-2,3-dihydro-1,4-benzoxazepin-4(5H)-yl]-N-methylcyclobutanecarboxamide], the IC50 is reported as ≤ 100 nM. For `CNC(=O)C1CC(N2Cc3c(C#N)c(Cl)cc(C(C)n4nc(C)c5c(N)ncnc54)c3OC(C)C2)C1` (single isomer, unassigned) [Example 114, 3-[9-[1-(4-amino-3-methyl-1H-pyrazolo[3,4-d]pyrimidin-1-yl)ethyl]-7-chloro-6-cyano-2-methyl-2,3-dihydro-1,4-benzoxazepin-4(5H)-yl]-N-methylcyclobutanecarboxamide], the IC50 was ≤ 100 nM. For `CNC(=O)C1CC(N2Cc3c(C#N)c(Cl)cc(C(C)n4nc(C)c5c(N)ncnc54)c3OC(C)C2)C1` (single isomer, unassigned) [Example 115, 3-[9-[1-(4-amino-3-methyl-1H-pyrazolo[3,4-d]pyrimidin-1-yl)ethyl]-7-chloro-6-cyano-2-methyl-2,3-dihydro-1,4-benzoxazepin-4(5H)-yl]-N-methylcyclobutanecarboxamide], the IC50 was ≤ 100 nM. For `CC(=O)N1CC(N2CCOc3c(C(C)n4nc(C)c5c(N)ncnc54)cc(Cl)c(F)c3C2)C1` (stereo not shown) [Example 34, 1-{1-[4-(1-Acetylazetidin-3-yl)-7-chloro-6-fluoro-2,3,4,5-tetrahydro-1,4-benzoxazepin-9-yl]ethyl}-3-methyl-1H-pyrazolo[3,4-d]pyrimidin-4-amine], the IC50 was ≤ 100 nM. In the case of `Cc1nn(C(C)c2cc(Cl)c(F)c3c2O[C@@H](C)CN(C2CC(C(=O)O)C2)C3)c2ncnc(N)c12` (stereo partly shown) [Example 41, 3-[9-[1-(4-Amino-3-methyl-1H-pyrazolo[3,4-d]pyrimidin-1-yl)ethyl]-7-chloro-6-fluoro-2-methyl-2,3-dihydro-1,4-benzoxazepin-4(5H)-yl]cyclobutanecarboxylic acid trifluoroacetate], the IC50 is reported as ≤ 100 nM. In the case of `Cc1nn(C(C)c2cc(Cl)c(F)c3c2O[C@@H](C)CN(C2CC(C(N)=O)C2)C3)c2ncnc(N)c12` (stereo partly shown) [Example 43], the IC50 is reported as ≤ 100 nM. For `CC(=O)N1CC(N2CCOc3c(C(C)n4nc(C)c5c(N)ncnc54)cc(Cl)c(C#N)c3C2)C1` (stereo not shown) [Example 46, 4-(1-Acetylazetidin-3-yl)-9-[1-(4-amino-3-methyl-1H-pyrazolo[3,4-d]pyrimidin-1-yl)ethyl]-7-chloro-2,3,4,5-tetrahydro-1,4-benzoxazepine-6-carbonitrile], the IC50 was ≤ 100 nM. `Cc1nn(C(C)c2cc(Cl)c(C#N)c3c2OCCN(C2CN(CCO)C2)C3)c2ncnc(N)c12` (stereo not shown) [Example 47, 9-[1-(4-amino-3-methyl-1H-pyrazolo[3,4-d]pyrimidin-1-yl)ethyl]-7-chloro-4-[1-(2-hydroxyethyl)azetidin-3-yl]-2,3,4,5-tetrahydro-1,4-benzoxazepine-6-carbonitrile] was tested, and the IC50 was ≤ 100 nM. `Cc1nn(C(C)c2cc(Cl)c(C#N)c3c2O[C@@H](C)CN(C2CN(CCO)C2)C3)c2ncnc(N)c12` (stereo partly drawn) [Example 56, (2S)-9-[1-(4-Amino-3-methyl-1H-pyrazolo[3,4-d]pyrimidin-1-yl)ethyl]-7-chloro-4-[1-(2-hydroxyethyl)azetidin-3-yl]-2-methyl-2,3,4,5-tetrahydro-1,4-benzoxazepine-6-carbonitrile] was tested, and the IC50 was ≤ 100 nM. In the case of `Cc1nn(C(C)c2cc(Cl)c(C#N)c3c2OCCN(CCO)C3)c2ncnc(N)c12` (stereo not shown) [Example 58, 9-[1-(4-Amino-3-methyl-1H-pyrazolo[3,4-d]pyrimidin-1-yl)ethyl]-7-chloro-4-(2-hydroxyethyl)-2,3,4,5-tetrahydro-1,4-benzoxazepine-6-carbonitrile], the IC50 is reported as ≤ 100 nM. In the case of `Cc1nn(C(C)c2cc(Cl)c(F)c3c2OCCN(C2CN(C(=O)N(C)C)C2)C3)c2ncnc(N)c12` (stereo not shown) [Example 73, 3-[9-[1-(4-amino-3-methyl-1H-pyrazolo[3,4-d]pyrimidin-1-yl)ethyl]-7-chloro-6-fluoro-2,3-dihydro-1,4-benzoxazepin-4(5H)-yl]-N,N-dimethylazetidine-1-carboxamide], the IC50 is reported as ≤ 100 nM. `Cc1nn(C(C)c2cc(Cl)c(F)c3c2OCCN(C2CN(S(=O)(=O)N(C)C)C2)C3)c2ncnc(N)c12` (stereo not shown) [Example 74, 3-[9-[1-(4-amino-3-methyl-1H-pyrazolo[3,4-d]pyrimidin-1-yl)ethyl]-7-chloro-6-fluoro-2,3-dihydro-1,4-benzoxazepin-4(5H)-yl]-N,N-dimethylazetidine-1-sulfonamide] was tested, and the IC50 was ≤ 100 nM. `Cc1nn(C(C)c2cc(Cl)c(F)c3c2OC(C)CN(C2CN(S(C)(=O)=O)C2)C3)c2ncnc(N)c12` (stereo not shown) [Example 75, 1-(1-{7-chloro-6-fluoro-2-methyl-4-[1-(methylsulfonyl)azetidin-3-yl]-2,3,4,5-tetrahydro-1,4-benzoxazepin-9-yl}ethyl)-3-methyl-1H-pyrazolo[3,4-d]pyrimidin-4-amine] was tested, and the IC50 was ≤ 100 nM. `CCC(=O)N1CC(N2Cc3c(F)c(Cl)cc(C(C)n4nc(C)c5c(N)ncnc54)c3OC(C)C2)C1` (stereo not shown) [Example 76, 1-{1-[7-chloro-6-fluoro-2-methyl-4-(1-propionylazetidin-3-yl)-2,3,4,5-tetrahydro-1,4-benzoxazepin-9-yl]ethyl}-3-methyl-1H-pyrazolo[3,4-d]pyrimidin-4-amine] was tested, and the IC50 was ≤ 100 nM.
